# Experimental data taken from the kinase profiling compilation of Christmann-Franck et al. (2016).
# Biological target: SRPK1 (human) (UniProt Q96SB4)
# Test: radiometric filter-binding kinase assay, Kinase HotSpot
# Details: compound 0.5 µM; ATP 10 µM
row,Compound,residual activity [%]
1,COc1cc2ncnc(Nc3ccc(F)c(Cl)c3)c2cc1OCCCN1CCOCC1,98.3
2,Nc1nc(Nc2ccc(S(N)(=O)=O)cc2)nn1C(=O)c1c(F)cccc1F,86.4
3,Clc1ccc(Nc2nnc(Cc3ccncc3)c3ccccc23)cc1,98.5
4,O=C(NC(NC(=S)Nc1ccc(F)c([N+](=O)[O-])c1)C(Cl)(Cl)Cl)C(c1ccccc1)c1ccccc1 (stereo not drawn),99.3

# Biological target: PNCK (human) (UniProt Q6P2M8)
# Test: as above
# Details: compound 0.5 µM; ATP 10 µM
row,Compound,residual activity [%]
1,O=C1Cc2c([nH]c3ccc([N+](=O)[O-])cc23)-c2ccccc2N1,107
2,COc1cc2ncnc(Nc3ccc(F)c(Cl)c3)c2cc1OCCCN1CCOCC1,108
3,Nc1nc(Nc2ccc(S(N)(=O)=O)cc2)nn1C(=O)c1c(F)cccc1F,107
4,Clc1ccc(Nc2nnc(Cc3ccncc3)c3ccccc23)cc1,103
5,O=C(NC(NC(=S)Nc1ccc(F)c([N+](=O)[O-])c1)C(Cl)(Cl)Cl)C(c1ccccc1)c1ccccc1 (stereo not drawn),115

# Biological target: EPHA5 (human) (UniProt P54756)
# Test: as above
# Details: compound 0.5 µM; ATP 10 µM
row,Compound,residual activity [%]
1,O=C1Cc2c([nH]c3ccc([N+](=O)[O-])cc23)-c2ccccc2N1,98.6
2,COc1cc2ncnc(Nc3ccc(F)c(Cl)c3)c2cc1OCCCN1CCOCC1,95.8
3,Nc1nc(Nc2ccc(S(N)(=O)=O)cc2)nn1C(=O)c1c(F)cccc1F,92.2
4,Clc1ccc(Nc2nnc(Cc3ccncc3)c3ccccc23)cc1,109
5,O=C(NC(NC(=S)Nc1ccc(F)c([N+](=O)[O-])c1)C(Cl)(Cl)Cl)C(c1ccccc1)c1ccccc1 (stereo not drawn),107

# Biological target: ADRBK1 (human) (UniProt P25098)
# Test: as above
# Details: compound 0.5 µM; ATP 10 µM
row,Compound,residual activity [%]
1,O=C1Cc2c([nH]c3ccc([N+](=O)[O-])cc23)-c2ccccc2N1,91.8
2,COc1cc2ncnc(Nc3ccc(F)c(Cl)c3)c2cc1OCCCN1CCOCC1,93.3
3,Nc1nc(Nc2ccc(S(N)(=O)=O)cc2)nn1C(=O)c1c(F)cccc1F,97.3
4,Clc1ccc(Nc2nnc(Cc3ccncc3)c3ccccc23)cc1,102
5,O=C(NC(NC(=S)Nc1ccc(F)c([N+](=O)[O-])c1)C(Cl)(Cl)Cl)C(c1ccccc1)c1ccccc1 (stereo not drawn),79.5

# Biological target: SLK (human) (UniProt Q9H2G2)
# Test: as above
# Details: compound 0.5 µM; ATP 10 µM
row,Compound,residual activity [%]
1,O=C1Cc2c([nH]c3ccc([N+](=O)[O-])cc23)-c2ccccc2N1,96.2
2,COc1cc2ncnc(Nc3ccc(F)c(Cl)c3)c2cc1OCCCN1CCOCC1,83.7
3,Nc1nc(Nc2ccc(S(N)(=O)=O)cc2)nn1C(=O)c1c(F)cccc1F,19.1
4,Clc1ccc(Nc2nnc(Cc3ccncc3)c3ccccc23)cc1,94.2
5,O=C(NC(NC(=S)Nc1ccc(F)c([N+](=O)[O-])c1)C(Cl)(Cl)Cl)C(c1ccccc1)c1ccccc1 (stereo not drawn),95.2

# Biological target: FLT1 (human) (UniProt P17948)
# Sequence (P17948 whole entry, looked up): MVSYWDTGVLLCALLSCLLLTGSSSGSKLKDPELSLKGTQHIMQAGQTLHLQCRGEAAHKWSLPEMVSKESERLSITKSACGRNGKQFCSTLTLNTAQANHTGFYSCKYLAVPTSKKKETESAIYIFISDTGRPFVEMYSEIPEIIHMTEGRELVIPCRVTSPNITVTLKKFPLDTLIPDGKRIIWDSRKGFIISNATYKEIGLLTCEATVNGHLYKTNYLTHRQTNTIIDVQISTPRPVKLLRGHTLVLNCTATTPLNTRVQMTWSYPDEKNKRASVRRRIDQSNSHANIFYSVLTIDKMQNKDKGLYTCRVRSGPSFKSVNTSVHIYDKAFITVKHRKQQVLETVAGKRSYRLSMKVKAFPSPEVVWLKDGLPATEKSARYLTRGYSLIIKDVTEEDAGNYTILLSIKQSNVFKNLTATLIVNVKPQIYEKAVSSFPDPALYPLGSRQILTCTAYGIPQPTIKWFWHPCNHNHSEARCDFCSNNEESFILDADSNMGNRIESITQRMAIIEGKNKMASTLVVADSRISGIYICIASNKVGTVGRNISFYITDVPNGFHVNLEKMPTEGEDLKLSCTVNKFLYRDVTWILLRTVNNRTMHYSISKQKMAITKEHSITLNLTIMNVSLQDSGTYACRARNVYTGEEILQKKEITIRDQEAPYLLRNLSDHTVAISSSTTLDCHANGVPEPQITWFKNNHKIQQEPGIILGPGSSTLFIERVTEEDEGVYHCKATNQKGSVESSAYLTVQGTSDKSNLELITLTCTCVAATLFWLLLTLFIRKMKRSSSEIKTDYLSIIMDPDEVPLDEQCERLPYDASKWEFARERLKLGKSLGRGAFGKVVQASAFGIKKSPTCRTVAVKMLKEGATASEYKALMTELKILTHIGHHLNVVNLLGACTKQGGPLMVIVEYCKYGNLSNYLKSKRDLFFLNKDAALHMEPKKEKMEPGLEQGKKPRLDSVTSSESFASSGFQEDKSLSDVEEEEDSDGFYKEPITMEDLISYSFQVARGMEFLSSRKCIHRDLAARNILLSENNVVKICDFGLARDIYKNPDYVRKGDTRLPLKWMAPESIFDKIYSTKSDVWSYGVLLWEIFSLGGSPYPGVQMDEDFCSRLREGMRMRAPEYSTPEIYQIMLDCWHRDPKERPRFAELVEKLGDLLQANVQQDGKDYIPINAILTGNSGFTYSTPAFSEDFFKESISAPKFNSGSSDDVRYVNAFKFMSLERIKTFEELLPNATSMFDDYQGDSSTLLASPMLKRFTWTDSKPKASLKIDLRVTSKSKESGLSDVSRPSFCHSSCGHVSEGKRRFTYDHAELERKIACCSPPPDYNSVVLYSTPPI
# Test: as above
# Details: compound 0.5 µM; ATP 10 µM
row,Compound,residual activity [%]
1,O=C1Cc2c([nH]c3ccc([N+](=O)[O-])cc23)-c2ccccc2N1,98.2
2,COc1cc2ncnc(Nc3ccc(F)c(Cl)c3)c2cc1OCCCN1CCOCC1,98.3
3,Nc1nc(Nc2ccc(S(N)(=O)=O)cc2)nn1C(=O)c1c(F)cccc1F,90.7
4,O=C(NC(NC(=S)Nc1ccc(F)c([N+](=O)[O-])c1)C(Cl)(Cl)Cl)C(c1ccccc1)c1ccccc1 (stereo not drawn),97.2

# Biological target: RPS6KA4 KD2 (human) (UniProt O75676)
# Test: as above
# Details: compound 0.5 µM; ATP 10 µM
row,Compound,residual activity [%]
1,O=C1Cc2c([nH]c3ccc([N+](=O)[O-])cc23)-c2ccccc2N1,90.6
2,COc1cc2ncnc(Nc3ccc(F)c(Cl)c3)c2cc1OCCCN1CCOCC1,104
3,Nc1nc(Nc2ccc(S(N)(=O)=O)cc2)nn1C(=O)c1c(F)cccc1F,90.2
4,Clc1ccc(Nc2nnc(Cc3ccncc3)c3ccccc23)cc1,98
5,O=C(NC(NC(=S)Nc1ccc(F)c([N+](=O)[O-])c1)C(Cl)(Cl)Cl)C(c1ccccc1)c1ccccc1 (stereo not drawn),92.7

# Biological target: CAMK1D (human) (UniProt Q8IU85)
# Test: as above
# Details: compound 0.5 µM; ATP 10 µM
row,Compound,residual activity [%]
1,COc1cc2ncnc(Nc3ccc(F)c(Cl)c3)c2cc1OCCCN1CCOCC1,88.6
2,Nc1nc(Nc2ccc(S(N)(=O)=O)cc2)nn1C(=O)c1c(F)cccc1F,97.7
3,Clc1ccc(Nc2nnc(Cc3ccncc3)c3ccccc23)cc1,108
4,O=C(NC(NC(=S)Nc1ccc(F)c([N+](=O)[O-])c1)C(Cl)(Cl)Cl)C(c1ccccc1)c1ccccc1 (stereo not drawn),99

# Biological target: BMX (human) (UniProt P51813)
# Sequence (P51813 whole entry, looked up): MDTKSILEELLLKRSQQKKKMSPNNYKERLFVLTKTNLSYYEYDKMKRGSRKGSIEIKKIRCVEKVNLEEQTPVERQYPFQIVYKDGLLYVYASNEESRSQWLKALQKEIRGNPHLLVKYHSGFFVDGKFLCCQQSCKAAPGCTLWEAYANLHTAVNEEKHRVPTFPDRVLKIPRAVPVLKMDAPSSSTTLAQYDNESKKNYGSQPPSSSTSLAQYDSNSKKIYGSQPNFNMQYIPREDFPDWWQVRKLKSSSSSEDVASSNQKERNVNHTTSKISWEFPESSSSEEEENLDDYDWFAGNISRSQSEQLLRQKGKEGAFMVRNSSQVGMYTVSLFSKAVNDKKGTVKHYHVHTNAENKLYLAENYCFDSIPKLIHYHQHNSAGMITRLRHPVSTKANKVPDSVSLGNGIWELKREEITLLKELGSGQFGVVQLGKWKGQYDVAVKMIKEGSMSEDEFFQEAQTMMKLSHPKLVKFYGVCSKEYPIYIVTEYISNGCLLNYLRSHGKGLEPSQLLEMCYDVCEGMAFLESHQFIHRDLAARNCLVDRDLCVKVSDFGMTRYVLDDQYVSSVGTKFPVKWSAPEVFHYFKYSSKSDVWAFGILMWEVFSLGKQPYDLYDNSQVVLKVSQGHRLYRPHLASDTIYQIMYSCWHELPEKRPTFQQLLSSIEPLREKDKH
# Test: as above
# Details: compound 0.5 µM; ATP 10 µM
row,Compound,residual activity [%]
1,O=C1Cc2c([nH]c3ccc([N+](=O)[O-])cc23)-c2ccccc2N1,110
2,COc1cc2ncnc(Nc3ccc(F)c(Cl)c3)c2cc1OCCCN1CCOCC1,102
3,Clc1ccc(Nc2nnc(Cc3ccncc3)c3ccccc23)cc1,106
4,O=C(NC(NC(=S)Nc1ccc(F)c([N+](=O)[O-])c1)C(Cl)(Cl)Cl)C(c1ccccc1)c1ccccc1 (stereo not drawn),102

# Biological target: ULK2 (human) (UniProt Q8IYT8)
# Test: as above
# Details: compound 0.5 µM; ATP 10 µM
row,Compound,residual activity [%]
1,O=C1Cc2c([nH]c3ccc([N+](=O)[O-])cc23)-c2ccccc2N1,72.7
2,COc1cc2ncnc(Nc3ccc(F)c(Cl)c3)c2cc1OCCCN1CCOCC1,104
3,Nc1nc(Nc2ccc(S(N)(=O)=O)cc2)nn1C(=O)c1c(F)cccc1F,102
4,Clc1ccc(Nc2nnc(Cc3ccncc3)c3ccccc23)cc1,99.9

# Biological target: MAPK10 (human) (UniProt P53779)
# Sequence (P53779 whole entry, looked up): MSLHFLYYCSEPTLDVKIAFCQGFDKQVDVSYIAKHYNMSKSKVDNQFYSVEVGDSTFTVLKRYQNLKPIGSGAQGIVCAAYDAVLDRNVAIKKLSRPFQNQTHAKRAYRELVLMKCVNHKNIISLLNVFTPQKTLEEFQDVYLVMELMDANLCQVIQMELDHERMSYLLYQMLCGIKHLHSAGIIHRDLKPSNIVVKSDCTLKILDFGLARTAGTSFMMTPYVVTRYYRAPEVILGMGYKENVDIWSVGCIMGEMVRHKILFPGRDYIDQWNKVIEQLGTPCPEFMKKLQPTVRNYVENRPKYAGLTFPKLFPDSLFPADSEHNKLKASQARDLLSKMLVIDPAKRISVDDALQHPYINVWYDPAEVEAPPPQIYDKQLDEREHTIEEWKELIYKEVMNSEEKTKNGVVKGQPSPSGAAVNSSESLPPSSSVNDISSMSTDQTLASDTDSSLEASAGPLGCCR
# Test: as above
# Details: compound 0.5 µM; ATP 10 µM
row,Compound,residual activity [%]
1,O=C1Cc2c([nH]c3ccc([N+](=O)[O-])cc23)-c2ccccc2N1,97.2
2,COc1cc2ncnc(Nc3ccc(F)c(Cl)c3)c2cc1OCCCN1CCOCC1,102
3,Nc1nc(Nc2ccc(S(N)(=O)=O)cc2)nn1C(=O)c1c(F)cccc1F,100
4,Clc1ccc(Nc2nnc(Cc3ccncc3)c3ccccc23)cc1,116
5,O=C(NC(NC(=S)Nc1ccc(F)c([N+](=O)[O-])c1)C(Cl)(Cl)Cl)C(c1ccccc1)c1ccccc1 (stereo not drawn),96.2

# Biological target: PRKCE (human) (UniProt Q02156)
# Sequence (Q02156 whole entry, looked up): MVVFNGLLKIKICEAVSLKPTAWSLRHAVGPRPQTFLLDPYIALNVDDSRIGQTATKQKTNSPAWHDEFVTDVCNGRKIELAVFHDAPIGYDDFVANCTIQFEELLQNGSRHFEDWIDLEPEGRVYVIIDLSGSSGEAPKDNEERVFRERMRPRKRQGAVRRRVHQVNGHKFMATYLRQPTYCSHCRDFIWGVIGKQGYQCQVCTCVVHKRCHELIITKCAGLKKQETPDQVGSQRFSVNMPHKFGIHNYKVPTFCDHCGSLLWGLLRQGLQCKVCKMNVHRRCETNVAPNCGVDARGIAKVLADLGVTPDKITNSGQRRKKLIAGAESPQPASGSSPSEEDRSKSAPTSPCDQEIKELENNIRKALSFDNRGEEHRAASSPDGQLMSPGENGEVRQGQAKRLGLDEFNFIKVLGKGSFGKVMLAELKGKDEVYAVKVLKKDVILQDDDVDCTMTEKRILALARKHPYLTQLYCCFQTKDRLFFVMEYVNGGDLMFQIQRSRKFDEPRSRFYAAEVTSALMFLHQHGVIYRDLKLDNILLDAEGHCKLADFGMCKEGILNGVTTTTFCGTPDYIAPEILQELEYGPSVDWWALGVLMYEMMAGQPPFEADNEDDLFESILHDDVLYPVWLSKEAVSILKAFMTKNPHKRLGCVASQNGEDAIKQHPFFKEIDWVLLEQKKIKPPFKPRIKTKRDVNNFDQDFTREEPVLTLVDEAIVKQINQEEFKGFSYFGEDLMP
# Test: as above
# Details: compound 0.5 µM; ATP 10 µM
row,Compound,residual activity [%]
1,O=C1Cc2c([nH]c3ccc([N+](=O)[O-])cc23)-c2ccccc2N1,111
2,COc1cc2ncnc(Nc3ccc(F)c(Cl)c3)c2cc1OCCCN1CCOCC1,97.3
3,Nc1nc(Nc2ccc(S(N)(=O)=O)cc2)nn1C(=O)c1c(F)cccc1F,97.2
4,Clc1ccc(Nc2nnc(Cc3ccncc3)c3ccccc23)cc1,100
5,O=C(NC(NC(=S)Nc1ccc(F)c([N+](=O)[O-])c1)C(Cl)(Cl)Cl)C(c1ccccc1)c1ccccc1 (stereo not drawn),109

# Biological target: PDGFRA (human) (UniProt P16234)
# Test: as above
# Details: compound 0.5 µM; ATP 10 µM
row,Compound,residual activity [%]
1,O=C1Cc2c([nH]c3ccc([N+](=O)[O-])cc23)-c2ccccc2N1,91.7
2,COc1cc2ncnc(Nc3ccc(F)c(Cl)c3)c2cc1OCCCN1CCOCC1,97
3,Nc1nc(Nc2ccc(S(N)(=O)=O)cc2)nn1C(=O)c1c(F)cccc1F,82
4,Clc1ccc(Nc2nnc(Cc3ccncc3)c3ccccc23)cc1,33.3
5,O=C(NC(NC(=S)Nc1ccc(F)c([N+](=O)[O-])c1)C(Cl)(Cl)Cl)C(c1ccccc1)c1ccccc1 (stereo not drawn),100

# Biological target: HIPK4 (human) (UniProt Q8NE63)
# Test: as above
# Details: compound 0.5 µM; ATP 10 µM
row,Compound,residual activity [%]
1,O=C1Cc2c([nH]c3ccc([N+](=O)[O-])cc23)-c2ccccc2N1,103
2,COc1cc2ncnc(Nc3ccc(F)c(Cl)c3)c2cc1OCCCN1CCOCC1,90.4
3,Nc1nc(Nc2ccc(S(N)(=O)=O)cc2)nn1C(=O)c1c(F)cccc1F,67.7
4,Clc1ccc(Nc2nnc(Cc3ccncc3)c3ccccc23)cc1,95.9
5,O=C(NC(NC(=S)Nc1ccc(F)c([N+](=O)[O-])c1)C(Cl)(Cl)Cl)C(c1ccccc1)c1ccccc1 (stereo not drawn),104

# Biological target: CDK2 CCNE1 (human) (UniProt P24941+P24864)
# Sequence (P24864 whole entry, looked up, other chains not shown): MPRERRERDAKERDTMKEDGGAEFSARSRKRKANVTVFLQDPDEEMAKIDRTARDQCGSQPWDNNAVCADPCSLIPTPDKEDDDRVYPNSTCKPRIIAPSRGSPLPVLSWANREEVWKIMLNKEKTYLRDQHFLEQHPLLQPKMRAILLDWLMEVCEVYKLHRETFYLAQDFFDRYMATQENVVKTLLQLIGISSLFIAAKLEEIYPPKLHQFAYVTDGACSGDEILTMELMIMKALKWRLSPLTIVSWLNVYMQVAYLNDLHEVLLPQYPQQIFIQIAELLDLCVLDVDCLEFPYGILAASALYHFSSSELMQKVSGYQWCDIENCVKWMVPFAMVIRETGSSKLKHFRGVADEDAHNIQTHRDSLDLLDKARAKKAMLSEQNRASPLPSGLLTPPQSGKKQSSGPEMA
# Test: as above
# Details: compound 0.5 µM; ATP 10 µM
row,Compound,residual activity [%]
1,O=C1Cc2c([nH]c3ccc([N+](=O)[O-])cc23)-c2ccccc2N1,19.6
2,COc1cc2ncnc(Nc3ccc(F)c(Cl)c3)c2cc1OCCCN1CCOCC1,101
3,Nc1nc(Nc2ccc(S(N)(=O)=O)cc2)nn1C(=O)c1c(F)cccc1F,7.15
4,Clc1ccc(Nc2nnc(Cc3ccncc3)c3ccccc23)cc1,94.5
5,O=C(NC(NC(=S)Nc1ccc(F)c([N+](=O)[O-])c1)C(Cl)(Cl)Cl)C(c1ccccc1)c1ccccc1 (stereo not drawn),89.2

# Biological target: SRC (human) (UniProt P12931)
# Test: as above
# Details: compound 0.5 µM; ATP 10 µM
row,Compound,residual activity [%]
1,O=C1Cc2c([nH]c3ccc([N+](=O)[O-])cc23)-c2ccccc2N1,39.7
2,Nc1nc(Nc2ccc(S(N)(=O)=O)cc2)nn1C(=O)c1c(F)cccc1F,76.3
3,Clc1ccc(Nc2nnc(Cc3ccncc3)c3ccccc23)cc1,104
4,O=C(NC(NC(=S)Nc1ccc(F)c([N+](=O)[O-])c1)C(Cl)(Cl)Cl)C(c1ccccc1)c1ccccc1 (stereo not drawn),96.1

# Biological target: AKT2 (human) (UniProt P31751)
# Test: as above
# Details: compound 0.5 µM; ATP 10 µM
row,Compound,residual activity [%]
1,O=C1Cc2c([nH]c3ccc([N+](=O)[O-])cc23)-c2ccccc2N1,101
2,Nc1nc(Nc2ccc(S(N)(=O)=O)cc2)nn1C(=O)c1c(F)cccc1F,107
3,Clc1ccc(Nc2nnc(Cc3ccncc3)c3ccccc23)cc1,104
4,O=C(NC(NC(=S)Nc1ccc(F)c([N+](=O)[O-])c1)C(Cl)(Cl)Cl)C(c1ccccc1)c1ccccc1 (stereo not drawn),91.6

# Biological target: STK24 (human) (UniProt Q9Y6E0)
# Sequence (Q9Y6E0 whole entry, looked up): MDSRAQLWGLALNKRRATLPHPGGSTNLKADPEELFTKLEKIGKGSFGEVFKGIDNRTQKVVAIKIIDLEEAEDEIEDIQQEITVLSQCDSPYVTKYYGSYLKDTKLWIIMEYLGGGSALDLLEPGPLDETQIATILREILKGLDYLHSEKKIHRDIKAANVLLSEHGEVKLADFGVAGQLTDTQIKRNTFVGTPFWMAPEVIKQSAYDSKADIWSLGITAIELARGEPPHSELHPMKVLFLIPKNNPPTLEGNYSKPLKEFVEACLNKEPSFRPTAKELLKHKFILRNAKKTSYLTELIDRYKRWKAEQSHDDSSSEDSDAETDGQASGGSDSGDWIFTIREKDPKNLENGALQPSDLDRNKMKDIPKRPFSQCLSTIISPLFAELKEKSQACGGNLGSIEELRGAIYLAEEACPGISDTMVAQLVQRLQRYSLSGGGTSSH
# Test: as above
# Details: compound 0.5 µM; ATP 10 µM
row,Compound,residual activity [%]
1,O=C1Cc2c([nH]c3ccc([N+](=O)[O-])cc23)-c2ccccc2N1,66.4
2,COc1cc2ncnc(Nc3ccc(F)c(Cl)c3)c2cc1OCCCN1CCOCC1,102
3,Nc1nc(Nc2ccc(S(N)(=O)=O)cc2)nn1C(=O)c1c(F)cccc1F,76.9
4,Clc1ccc(Nc2nnc(Cc3ccncc3)c3ccccc23)cc1,98.7
5,O=C(NC(NC(=S)Nc1ccc(F)c([N+](=O)[O-])c1)C(Cl)(Cl)Cl)C(c1ccccc1)c1ccccc1 (stereo not drawn),92.8

# Biological target: CDK7 CCNH MNAT1 (human) (UniProt P50613+P51948+P51946)
# Test: as above
# Details: compound 0.5 µM; ATP 10 µM
row,Compound,residual activity [%]
1,O=C1Cc2c([nH]c3ccc([N+](=O)[O-])cc23)-c2ccccc2N1,99.9
2,COc1cc2ncnc(Nc3ccc(F)c(Cl)c3)c2cc1OCCCN1CCOCC1,105
3,Nc1nc(Nc2ccc(S(N)(=O)=O)cc2)nn1C(=O)c1c(F)cccc1F,81.1
4,Clc1ccc(Nc2nnc(Cc3ccncc3)c3ccccc23)cc1,107
5,O=C(NC(NC(=S)Nc1ccc(F)c([N+](=O)[O-])c1)C(Cl)(Cl)Cl)C(c1ccccc1)c1ccccc1 (stereo not drawn),99

# Biological target: EPHA3 (human) (UniProt P29320)
# Sequence (P29320 whole entry, looked up): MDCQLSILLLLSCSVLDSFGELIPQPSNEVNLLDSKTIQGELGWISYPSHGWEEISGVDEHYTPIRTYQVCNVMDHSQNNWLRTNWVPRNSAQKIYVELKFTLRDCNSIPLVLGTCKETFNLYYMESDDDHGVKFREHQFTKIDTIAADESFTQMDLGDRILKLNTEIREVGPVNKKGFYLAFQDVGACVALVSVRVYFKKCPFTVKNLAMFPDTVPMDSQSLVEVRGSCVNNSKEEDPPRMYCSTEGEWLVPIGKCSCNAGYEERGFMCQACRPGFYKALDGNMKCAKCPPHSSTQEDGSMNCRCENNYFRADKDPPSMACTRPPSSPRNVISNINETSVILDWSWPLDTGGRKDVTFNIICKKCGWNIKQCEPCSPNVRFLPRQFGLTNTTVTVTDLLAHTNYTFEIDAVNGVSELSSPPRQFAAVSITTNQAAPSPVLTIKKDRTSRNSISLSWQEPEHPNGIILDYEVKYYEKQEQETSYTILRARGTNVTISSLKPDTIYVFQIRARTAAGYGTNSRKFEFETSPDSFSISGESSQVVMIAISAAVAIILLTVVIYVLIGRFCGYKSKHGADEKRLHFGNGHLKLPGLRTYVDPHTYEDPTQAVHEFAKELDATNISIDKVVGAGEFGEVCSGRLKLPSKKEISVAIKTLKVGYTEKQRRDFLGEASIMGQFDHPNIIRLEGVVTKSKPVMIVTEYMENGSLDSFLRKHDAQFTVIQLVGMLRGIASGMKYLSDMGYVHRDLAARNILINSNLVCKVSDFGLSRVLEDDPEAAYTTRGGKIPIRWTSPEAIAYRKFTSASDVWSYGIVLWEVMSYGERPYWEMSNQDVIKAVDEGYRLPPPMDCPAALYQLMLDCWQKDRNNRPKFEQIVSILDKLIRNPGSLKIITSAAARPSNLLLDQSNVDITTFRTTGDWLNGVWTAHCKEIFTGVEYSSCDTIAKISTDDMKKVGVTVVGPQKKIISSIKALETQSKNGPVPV
# Test: as above
# Details: compound 0.5 µM; ATP 10 µM
row,Compound,residual activity [%]
1,O=C1Cc2c([nH]c3ccc([N+](=O)[O-])cc23)-c2ccccc2N1,97.8
2,COc1cc2ncnc(Nc3ccc(F)c(Cl)c3)c2cc1OCCCN1CCOCC1,94.4
3,Nc1nc(Nc2ccc(S(N)(=O)=O)cc2)nn1C(=O)c1c(F)cccc1F,107
4,Clc1ccc(Nc2nnc(Cc3ccncc3)c3ccccc23)cc1,98.8
5,O=C(NC(NC(=S)Nc1ccc(F)c([N+](=O)[O-])c1)C(Cl)(Cl)Cl)C(c1ccccc1)c1ccccc1 (stereo not drawn),105

# Biological target: ABL2 (human) (UniProt P42684)
# Test: as above
# Details: compound 0.5 µM; ATP 10 µM
row,Compound,residual activity [%]
1,O=C1Cc2c([nH]c3ccc([N+](=O)[O-])cc23)-c2ccccc2N1,54.6
2,COc1cc2ncnc(Nc3ccc(F)c(Cl)c3)c2cc1OCCCN1CCOCC1,72
3,Nc1nc(Nc2ccc(S(N)(=O)=O)cc2)nn1C(=O)c1c(F)cccc1F,53.9
4,Clc1ccc(Nc2nnc(Cc3ccncc3)c3ccccc23)cc1,101
5,O=C(NC(NC(=S)Nc1ccc(F)c([N+](=O)[O-])c1)C(Cl)(Cl)Cl)C(c1ccccc1)c1ccccc1 (stereo not drawn),105
